Assay results from patent US5220050A, “Peptide mimetic compounds useful as platelet aggregation inhibitors” (G. D. Searle & Co., priority 1991, dated 1993).
Where a name gives a salt, the structure may show the parent alone.

How the values were obtained:
[1] = system: Platelet Aggregation in Dog PRP; experiment: In-Vitro Platelet Aggregation in PRP (ADP induced); type: cell-based; conditions: Canis lupus familiaris, Platelet, in-vitro
Method: Healthy male or female dogs were fasted for 8 hours prior to drawing blood; then 30 ml whole blood was collected using a butterfly needle and 30 cc plastic syringe with 3 ml of 0.129 M buffered sodium citrate (3.8%). The syringe was rotated carefully as blood was drawn to mix the citrate. Platelet-rich plasma (PRP) was prepared by centrifugation at 975×g for 3.17 minutes at room temperature, allowing the centrifuge to coast to a stop without braking. The PRP was removed from the blood with a plastic pipette and placed in a plastic capped, 50 ml Corning conical sterile centrifuge tube which was held at room temperature. Platelet poor plasma (PPP) was prepared by centrifuging the remaining blood at 2000×g for 15 minutes at room temperature allowing the centrifuge to coast to a stop without braking. The PRP was adjusted with PPP to a count of 2-3×10^8 platelets per ml. 400 μl of the PRP preparation and 50 μl of the compound to be tested or saline were preincubated for 1 minute at 37° C. in a BioData aggregometer (BioData, Horsham, Pa.). 50 μl of adenosine 5'diphosphate (ADP) (50 μm final concentration) was added to the cuvettes and the aggregation was monitored for 1 minute. All compounds are tested in duplicate. Results are calculated as follows:
Percent of control=[(maximal OD minus initial OD of compound) divided by (maximal OD minus initial OD of control saline)]×100. The % inhibition=100-(percent of control).

[2] = system: collagen induced platelet aggregation; experiment: Inhibition of ex vivo collagen induced aggregation after administration to dogs; type: in vivo, dogs (Beagles); conditions: dog, intragastric or intravenous; for inhibition in vivo at 10 mg/kg / inhibition in vivo at 30 mg/kg: Canis lupus familiaris, Platelet, read-out: Max % Inhibition
Method: The purpose of this assay is to determine the effects of antiplatelet compounds on ex vivo collagen induced platelet aggregation when administered either intravenously or orally to dogs.
Pretreatment (control) blood samples are drawn from either conscious or anesthetized dogs (Beagles) and centrifuged to prepare platelet rich plasma (PRP). Aggregatory response to collagen is measured in an aggregometer and used as Control.
In Table B the designation "NT" means "Not Tested". Also in Table B, two readings given in a single box indicate that two trials, rather than a single trial, were run for that particular compound in that particular assay.

Compound | IC50 [1] [µM] | inhibition in vivo at 10 mg/kg ([2]; dose 10 mg/Kg) [%] | inhibition in vivo at 30 mg/kg ([2]; dose 30 mg/Kg) [%] | Duration ([2]; dose 30 mg/Kg) [h] | Duration ([2]; dose 10 mg/Kg) [h]
CCOC(=O)CC(C)NC(=O)CCCCc1ccc(C(=N)N)cc1 (centres unmarked) [Ethyl 3-[[5-[4-(aminoiminomethyl)phenyl]-1-oxopentyl]amino]butanoate] | 5 | 90 | 100 | > 24 | 
CCOC(=O)CC(NC(=O)CCCCc1ccc(C(=N)N)cc1)c1ccccc1 (stereo not drawn) [Ethyl β-[[5-[4-(aminoiminomethyl)phenyl]-1-oxopentyl]amino]benzenepropanoate] | 5.3 | 83 | 100 | > 24 | 
N=C(N)c1ccc(CCCCC(=O)NC(CC(=O)OC2CCCCC2)c2cccnc2)cc1 (stereo not drawn) [cyclohexyl β-[[5-[4-(aminoiminomethyl)phenyl]-1-oxopentyl]amino]-3-pyridinepropanoate] | 2.3 | 87 |  |  | 3
N=C(N)c1ccc(CCCCC(=O)NC(CC(=O)O)c2ccccc2)cc1 (stereo not drawn) [β-[[5-4-(aminoiminomethyl)phenyl]-1-oxopentyl]amino]benzenepropanoic acid, acetate salt] | 5.3 |  | 34 | < 2 | 
